In patent publication US12396977B2, “Composition for treating degenerative brain diseases, containing 2-pentylfuran as active ingredient” (DAEGU GYEONGBUK INSTITUTE OF SCIENCE AND TECHNOLOGY, priority 2019, dated 2025):

Experiments:
Olfr110 = test: Odorant receptor / Olfr110 expression in microglia (qRT-PCR, immunostaining); format: cell-based, mouse; settings: vs control
Excerpt: (§1) For the measurement of mRNA, RNA was isolated from red blood cells, microglia, astrocytes, Hana3A cells, or cerebral cortical cells using the MagNa Lyser (Roche Molecular Diagnostics) using TRIzol reagent (Invitrogen, Carlsbad, CA.) according to the manufacturer's protocol. Then, cDNA was generated through reverse transcription using the isolated mRNA (using PrimeScript™ 1st str and cDNA Synthesis kit—#6110; Takara Bio Inc). This process was quantitatively measured in real time through quantitative real-time-PCR (using LightCycler® 480 SYBR Green I Master). The measured values were calculated using the 2-ΔΔCt method.
Thereafter, the cells were washed with PBS and fixed in 4% paraformaldehyde (#6148; Sigma Aldrich) for 5 minutes. Subsequently, the cells were cultured in PBS containing 4% normal horse serum (#008-000-121; Jackson ImmunoResearch) and 0.1% TWEEN® 20 (#P9416; Sigma-Aldrich) at room temperature for 1 hour. Then, the cells were […] at 4° C. overnight with the primary antibodies listed below. The antibodies are as follows: Olfr110 (rabbit-anti-Olfr110; 1:10,000; #ab177327; Abcam), Iba-1 (goat-anti-Iba-1; 1:1,000; #ab5076; Abcam), and GFAP (mouse-anti-GFAP; 1:1,000; #556330; BD Biosciences). Samples were cultured with secondary antibodies in PBS including 0.1% TWEEN® 20 (#P9416; Sigma-Aldrich) at room temperature for 1 hour. […]

primary microglia = test: Boyden chamber chemotaxis of primary microglia; format: cell-based, mouse; settings: 100, 300, and 500 μM
Method: Cell chemotaxis was measured using a multiwell Boyden chamber. More specifically, a polycarbonate filter (8 μm pore; #101-8; Neuroprobe) was coated with […] fibronectin in PBS (Sigma-Aldrich) for 2 hours, and the coated filter was placed in a Boyden chamber. In addition, the bottom side of the plate was filled with serum-free DMEM containing 2-pentylfuran or a culture supernatant. Next, microglia or Hana3A cells were transfected with an odorant receptor structure and then suspended in serum-free DMEM. Subsequently, microglia and Hana3A cells were allowed to stand at 37° C. for 4 hours and 8 hours, respectively. Cells sinking to the bottom were fixed with 4% PFA, and stained with hematoxylin for 10 minutes. Fixed cells were counted under an optical microscope in 5 randomly selected fixed […] fields (200×) using a scored eyepiece. The chemical chemotaxis index was defined as the number of migrating cells using an untreated group as a standard.

cerebral cortex = test: Cytokine mRNA in cerebral cortex after IP injection (qRT-PCR); format: in vivo, mouse; settings: vs control
Excerpt: as §1

[1] = Disease behavior: mouse mobility (movement distance) after IP injection; format: in vivo; settings: after intraperitoneal (IP) injection
Method: It is known that an increase in disease behavior by activation of microglia is due to an increase in secreted cytokines. This experiment was conducted to confirm an increase in disease behavior with an increase in cytokines. The evaluation of disease behavior was made after IP injection of Sup or 2-PF into the mice.
After IP injection, the mouse was placed in a space with four open sides (40×40×40 cm, white field, black wall), and after the position of the mouse was recorded for 30 minutes using a camera, the movement distance was calculated Thereafter, a pseudo-color heat map was drawn using EthoVision XT (Noldus, Netherlands).

- Olfr110 protein level (immunostaining) (Olfr110): significantly increases
Compound: CCCCCc1ccco1 [2-PF, 2-pentylfuran]
- chemotaxis of microglia (primary microglia): significantly increased in a concentration-dependent manner
- mRNA expression level of inflammatory cytokines in the cerebral cortex (cerebral cortex): significantly increased
- mobility of the mouse (total movement distance) [1]: concentration-dependent decrease
